What was measured:
Assay in all cases: Twenty-four hour biofilm growth (crystal violet)
Type in all cases: cell-based
P. intermedia = system: P. intermedia
Experimental: (§1) The increase in biofilm formation of the tested bacteria in response to selected saccharides (D-turanose, D-lactitol, myo-inositol, and N-acetyl-D-mannosamine) was investigated by setting up biofilm growth assays in a nutritionally rich medium (brain heart infusion broth (BHI), Oxoid), over 24 hours. Late exponential growth phase liquid cultures were prepared by transferring the respective bacterium from blood agar plates to BHI and overnight incubation at 37° C. in an anaerobic atmosphere for A. viscosus, V. parvula, P. gingivalis, P. intermedia, T. forsythia, A. naeslundii, and C. sputigena, and in a 5% CO2 environment for S. salivarius, S. sanguinis, S. mitis, A. actinomycetemcomitans, S. mutans, and S. gordonii. Overnight cultures were transferred to BHI and adjusted to a concentration of 1×10^7 CFU/ml by measuring the optical density at 600 nm (OD600) (BioRad SmartSpec 3000). For each strain, 200 μl of the bacterial suspension was added to a 96-well plate containing 20 μl of the respective saccharides. Final concentrations of the saccharides were set to 5, 10, 20 and 25 μmol/ml. […] Additionally, for each bacterium tested, a background control, to correct for background staining, was added. This background control contained the bacterium tested and 0.03 weight % chlorhexidine, as an antiseptic. Plates were incubated as previously described. After 24 hrs the supernatant was removed from the wells of the plates. The wells were washed twice with 1×100 μL PBS (phosphate buffered saline), fixed for 20 minutes with 96% vol. ethanol (96% vol. solution in water) and the biofilm retained at the bottom of the wells was stained with 1 weight % crystal violet (1 weight % solution in water). The bound dye was dissolved with 5% vol. acetic acid (5% vol. solution in water). Quantification of the stained biofilm was performed by measuring the absorbance at 630 nm using a Multiskan Ascent microplate reader (Thermo Scientific).
(§2) The experiment was carried out on three different days (thus providing 3 biological replicas) and each day the experiment was carried out in quadruple (thus providing 4 technical replicas) for each combination of bacterium with saccharide and for each control. For each day and for each combination, the average (mean) of the values obtained (as detailed above) for the four technical replicas was calculated to provide a single value for each combination on each day. The values shown in Tables 7a, 7b, 8a, 8b, below, are the average (mean) of the three single values obtained for each combination of bacterium with saccharide.

S. sanguinis = system: S. sanguinis
Experimental: as §1, §2

V. parvula = system: V. parvula
Experimental: as §1, §2

A. actinomycetemcomitans = system: A. actinomycetemcomitans
Experimental: as §1, §2

S. mitis = system: S. mitis
Experimental: as §1, §2

S. gordonii = system: S. gordonii
Experimental: as §1, §2

S. salivarius = system: S. salivarius
Experimental: as §1, §2

C. sputigena = system: C. sputigena
Experimental: as §1, §2

A. naeslundii = system: A. naeslundii
Experimental: as §1, §2

A. viscosus = system: A. viscosus
Experimental: as §1, §2

T. forsythia = system: T. forsythia
Experimental: as §1, §2

P. gingivalis = system: P. gingivalis
Experimental: as §1, §2

S. mutans = settings: S mutans
Experimental: as §1, §2

## O[C@H]1[C@H](O)[C@@H](O)[C@H](O)[C@@H](O)[C@H]1O [Myo-Inositol, (1R,2R,3S,4S,5R,6S)-cyclohexane-1,2,3,4,5,6-hexol]
P. intermedia; 5 μmol/ml
  biofilm growth: OD 630 nm at 24 hrs divided by OD of control (control = 1): 1.1539
P. intermedia; 10 μmol/ml
  biofilm growth: OD 630 nm at 24 hrs divided by OD of control (control = 1): 1.2210
P. intermedia; 20 μmol/ml
  biofilm growth: OD 630 nm at 24 hrs divided by OD of control (control = 1): 1.1660
P. intermedia; 25 μmol/ml
  biofilm growth: OD 630 nm at 24 hrs divided by OD of control (control = 1): 1.0417
S. sanguinis; 5 μmol/ml
  biofilm growth: OD 630 nm at 24 hrs divided by OD of control (control = 1): 2.4209
S. sanguinis; 10 μmol/ml
  biofilm growth: OD 630 nm at 24 hrs divided by OD of control (control = 1): 2.3658
S. sanguinis; 20 μmol/ml
  biofilm growth: OD 630 nm at 24 hrs divided by OD of control (control = 1): 2.1878
S. sanguinis; 25 μmol/ml
  biofilm growth: OD 630 nm at 24 hrs divided by OD of control (control = 1): 2.1240
V. parvula; 5 μmol/ml
  biofilm growth: OD 630 nm at 24 hrs divided by OD of control (control = 1): 1.0021
V. parvula; 10 μmol/ml
  biofilm growth: OD 630 nm at 24 hrs divided by OD of control (control = 1): 1.1121
V. parvula; 20 μmol/ml
  biofilm growth: OD 630 nm at 24 hrs divided by OD of control (control = 1): 1.0036
V. parvula; 25 μmol/ml
  biofilm growth: OD 630 nm at 24 hrs divided by OD of control (control = 1): 1.0399
A. actinomycetemcomitans; 5 μmol/ml
  biofilm growth: OD 630 nm at 24 hrs divided by OD of control (control = 1): 0.8323
A. actinomycetemcomitans; 10 μmol/ml
  biofilm growth: OD 630 nm at 24 hrs divided by OD of control (control = 1): 0.8378
A. actinomycetemcomitans; 20 μmol/ml
  biofilm growth: OD 630 nm at 24 hrs divided by OD of control (control = 1): 0.9661
A. actinomycetemcomitans; 25 μmol/ml
  biofilm growth: OD 630 nm at 24 hrs divided by OD of control (control = 1): 0.9898
S. mitis; 5 μmol/ml
  biofilm growth: OD 630 nm at 24 hrs divided by OD of control (control = 1): 1.2433
S. mitis; 10 μmol/ml
  biofilm growth: OD 630 nm at 24 hrs divided by OD of control (control = 1): 1.0616
S. mitis; 20 μmol/ml
  biofilm growth: OD 630 nm at 24 hrs divided by OD of control (control = 1): 1.1754
S. mitis; 25 μmol/ml
  biofilm growth: OD 630 nm at 24 hrs divided by OD of control (control = 1): 1.1357
S. gordonii; 5 μmol/ml
  biofilm growth: OD 630 nm at 24 hrs divided by OD of control (control = 1): 0.6178
S. gordonii; 10 μmol/ml
  biofilm growth: OD 630 nm at 24 hrs divided by OD of control (control = 1): 0.6384
S. gordonii; 20 μmol/ml
  biofilm growth: OD 630 nm at 24 hrs divided by OD of control (control = 1): 0.6650
S. gordonii; 25 μmol/ml
  biofilm growth: OD 630 nm at 24 hrs divided by OD of control (control = 1): 0.6716
S. salivarius; 5 μmol/ml
  biofilm growth: OD 630 nm at 24 hrs divided by OD of control (control = 1): 0.8358
S. salivarius; 10 μmol/ml
  biofilm growth: OD 630 nm at 24 hrs divided by OD of control (control = 1): 0.9694
S. salivarius; 20 μmol/ml
  biofilm growth: OD 630 nm at 24 hrs divided by OD of control (control = 1): 0.8119
S. salivarius; 25 μmol/ml
  biofilm growth: OD 630 nm at 24 hrs divided by OD of control (control = 1): 0.8202
C. sputigena; 5 μmol/ml
  biofilm growth: OD 630 nm at 24 hrs divided by OD of control (control = 1): 0.9276
C. sputigena; 10 μmol/ml
  biofilm growth: OD 630 nm at 24 hrs divided by OD of control (control = 1): 0.9522
C. sputigena; 20 μmol/ml
  biofilm growth: OD 630 nm at 24 hrs divided by OD of control (control = 1): 0.9758
C. sputigena; 25 μmol/ml
  biofilm growth: OD 630 nm at 24 hrs divided by OD of control (control = 1): 0.8233
A. naeslundii; 5 μmol/ml
  biofilm growth: OD 630 nm at 24 hrs divided by OD of control (control = 1): 1.0309
A. naeslundii; 10 μmol/ml
  biofilm growth: OD 630 nm at 24 hrs divided by OD of control (control = 1): 1.0353
A. naeslundii; 20 μmol/ml
  biofilm growth: OD 630 nm at 24 hrs divided by OD of control (control = 1): 1.0270
A. naeslundii; 25 μmol/ml
  biofilm growth: OD 630 nm at 24 hrs divided by OD of control (control = 1): 1.0456
A. viscosus; 5 μmol/ml
  biofilm growth: OD 630 nm at 24 hrs divided by OD of control (control = 1): 0.8136
A. viscosus; 10 μmol/ml
  biofilm growth: OD 630 nm at 24 hrs divided by OD of control (control = 1): 0.8735
A. viscosus; 20 μmol/ml
  biofilm growth: OD 630 nm at 24 hrs divided by OD of control (control = 1): 0.8117
A. viscosus; 25 μmol/ml
  biofilm growth: OD 630 nm at 24 hrs divided by OD of control (control = 1): 0.8167
T. forsythia; 5 μmol/ml
  biofilm growth: OD 630 nm at 24 hrs divided by OD of control (control = 1): 0.6841
T. forsythia; 10 μmol/ml
  biofilm growth: OD 630 nm at 24 hrs divided by OD of control (control = 1): 0.6396
T. forsythia; 20 μmol/ml
  biofilm growth: OD 630 nm at 24 hrs divided by OD of control (control = 1): 0.7688
T. forsythia; 25 μmol/ml
  biofilm growth: OD 630 nm at 24 hrs divided by OD of control (control = 1): 0.6940
P. gingivalis; 5 μmol/ml
  biofilm growth: OD 630 nm at 24 hrs divided by OD of control (control = 1): 0.9325
P. gingivalis; 10 μmol/ml
  biofilm growth: OD 630 nm at 24 hrs divided by OD of control (control = 1): 0.9657
P. gingivalis; 20 μmol/ml
  biofilm growth: OD 630 nm at 24 hrs divided by OD of control (control = 1): 0.9448
P. gingivalis; 25 μmol/ml
  biofilm growth: OD 630 nm at 24 hrs divided by OD of control (control = 1): 1.0290
S. mutans; 5 μmol/ml
  biofilm growth: OD 630 nm at 24 hrs divided by OD of control (control = 1): 0.9177
S. mutans; 10 μmol/ml
  biofilm growth: OD 630 nm at 24 hrs divided by OD of control (control = 1): 1.0152
S. mutans; 20 μmol/ml
  biofilm growth: OD 630 nm at 24 hrs divided by OD of control (control = 1): 1.1995
S. mutans; 25 μmol/ml
  biofilm growth: OD 630 nm at 24 hrs divided by OD of control (control = 1): 1.4107
